Patent US20220401448A1, “Pharmaceutical Compositions Comprising an Inhibitor of a Histon-deacetylase (HDACi) and an Agonist of Toll-like-receptor 7 and/or 8 (TLR7 and/or TLR8) and Their Use in the Treatment of Cancer” (priority 2019, published 2022)
In brackets after ≈: the same amount, converted by molar mass. Where two headings read alike, the source gives them in different places.

Columns and labels:
[1] = system: SKOV3 ovarian cancer cell line; assay: MTT proliferation assay, single drugs, SKOV3; type: cell-based; settings: Homo sapiens
[2] = system: OvCar3 ovarian cancer cell line; assay: Individual effects (IC50), OvCar3; type: cell-based; settings: Homo sapiens, OVCAR-3
[3] = system: OvCa2810 primary ovarian cancer cells; assay: Individual effects (IC50), OvCa2810; type: cell-based; settings: OvCa2810, single drug
[4] = system: OvCa236 primary ovarian cancer cells; assay: Individual effects (IC50), OvCa236; type: cell-based; settings: OvCa236, single drug
[5] = common vehicles; cited from earlier work
[6] = system: Peripheral Blood Mononuclear Cells (PBMC); assay: Induction of apoptosis in PBMC from healthy volunteers; settings: 24 h of drug exposure, 1×IC50 (SKOV3 values)
Description: The drug doses (1×IC50) employed for both compound classes were those obtained in SKOV3 cells.

[7] = system: SKOV3^WT ovarian carcinoma cell line; assay: Screening of SKOV3^WT for HERV expression using qPCR; type: cell-based; settings: for ΔCt HERV Henv: untreated 15.87 ± 0.56; for ΔCt HERV KISD: untreated 17.66 ± 0.23; for ΔCt HERV Kpol: untreated 18.16 ± 0.48; for ΔCt HERV Kenv: untreated 18.49 ± 0.45; for ΔCt HERV IDDMK1.2: untreated 18.68 ± 0.41; for ΔCt KERV Kseminoma: untreated 18.90 ± 0.41; for ΔCt HERV V3.1: untreated 19.32 ± 0.41; for ΔCt HERV Kgag: untreated 19.47 ± 0.58; for ΔCt HERV Fpol: untreated 19.69 ± 0.37; for ΔCt HERV KLTR: untreated 19.91 ± 0.60; for ΔCt HERV Eenv: untreated 20.10 ± 0.51; for ΔCt HERV Wprt: untreated 20.48 ± 0.72; for ΔCt HERV FRD1: untreated 21.71 ± 0.60; for ΔCt HERV Wenv: untreated 22.12 ± 0.53; for ΔCt HERV WE1: untreated 22.12 ± 0.62; for ΔCt HERV V1: untreated 22.95 ± 1.89; for ΔCt HERV V2: untreated 23.11 ± 2.07; for ΔCt HERV Penv: untreated 25.26 ± 0.48; for ΔCt HERV Pgag: untreated 25.33 ± 0.31; for ΔCt HERV HC2pol: untreated 25.99 ± 0.57; for ΔCt HERV Ppol: untreated 26.05 ± 0.31; for ΔCt HERV C: untreated 26.20 ± 0.36; for ΔCt HERV MER34.1: untreated 27.96 ± 0.43; for ΔCt HERV T: untreated 28.36 ± 0.87; for ΔCt HERV L: untreated 28.42 ± 1.52; for ΔCt HERV Fc1: untreated 29.68 ± 0.57; for ΔCt HERV Spol: untreated 32.00 ± 0.73
Description: In particular, the SKOV3^WT ovarian carcinoma cell line was screened for HERV expression using quantitative PCT (qPCR). […] Gene expression was considered enforced when more than 3 PCR-cycles of difference (Untreated−Treated) was calculated (n≥3).
18S ribosomal RNA serves as standard.

[8] = system: OvCa28 primary ovarian cancer cells; assay: MTT proliferation assay, single drugs, OvCa28; type: cell-based; settings: for resistance of primary ovarian cancer cells compared to SKOV3: OvCa28 IC50 vs SKOV3 IC50; for IC50: read-out: IC50 (cell growth)
Description: OvCa28 primary ovarian cancer cells were isolated from a pretreated patient (patient number 28). These primary ovarian cancer cells were treated individually with either the HDAC inhibitor Romidepsin or the TLR7 agonist Vesatolimod as shown in FIG. 4. Cell growth was determined by the MTT proliferation assay.

[9] = system: NFkB activity; assay: NFkB activity by luciferase assay (NanoLuc reporter vector with NF-κB response element); type: cell-based
Description: In order to make conclusions about NFkB activation, the NFkB activity was analyzed by luciferase assay. The NanoLuc® Reporter Vector with NF-κB Response Element from Promega was used for this purpose.
The pNL3.2.NF-κB-RE[NlucP/NF-κB-RE/Hygro] Vector pNL3.2. (GenBank® Accession Number JQ513377) contains five copies of an NF-κB response element (NF-κB-RE) that drives transcription of a destabilized form of NanoLuc® luciferase, an engineered small (23.3 kDa) luciferase fusion protein. The NlucP reporter consists of NanoLuc® luciferase with a C-terminal fusion to PEST, a protein destabilization domain, which responds more quickly and with greater magnitude to changes in transcriptional activity than unmodified NanoLuc® luciferase. NanoLuc® (Nluc) luciferase is a small enzyme (19.1 kDa) engineered for optimal performance as a luminescent reporter. The luminescent reaction is ATP-independent and designed to suppress background luminescence for maximal assay sensitivity.
Without stimulation we detect about 6000 RLU. […] In summary, loss of NFkB was confirmed not only by Western Blot, but also in this functional test by loss of NFkB functionality using the reporter vector with NF-κB response element.

[10] = system: SKOV3^WT xenograft; settings: i.p. Romidepsin 1 mg/kg, Vesatolimod 5 mg/kg, four times at 3 day intervals
Description: 1 mm^3 tumor pieces were implanted subcutaneosly into six to eight week old female NMRI nude mice by minimal operative intervention. […] Three days after mice were intraperitoneally treated at doses of 1 mg/kg and 5 mg/kg body weight four times at 3 day intervals for 12 consecutive days.

[11] = system: HERV-V1 and V2; assay: ChIP (anti-H3K9ac) with qPCR of HERV-V1 and V2; type: cell-based; settings: SKOV3, OvCar3, OvCa236
Description: While the data concerning the transcriptional upregulation of HERV-V1/V2 upon HDAC inhibition were confirmed, it is unclear whether this is a direct effect of the drugs on epigenetic marks proximate to sites of HERV-V1/V2 integration. For this reason, ChIP-analyses of relevant histones were performed (ChIP=chromatin immunoprecipitation, was performed as described in Nakato R. et al. “Methods for ChIP-seq analysis: A practical workflow and advanced applications”, Methods 2020, doi.org/10.1016/j.ymeth.2020.03.005). Histone H3 along with H2A, H2B and H4 is involved in the structure of chromatin in eukaryotic cells. Histone H3 can undergo several different types of epigenetic modifications that influence cellular processes. These modifications include acetylation, phosphorylation, methylation, ubiquitination, and ADP-ribosylation and occur on the N-terminal tail domains of histone H3. […] In most species, histone H3 is primarily acetylated at lysine 9, 14, 18, and 27. […] We analyzed not only the ovarian cell lines SKOV3 and OVCar3, but also the primary cancer cell line OvCa236 derived from a patient. […] We therefore performed Immunoprecipitation using a anti-histone H3K9ac (Acetyl H3K9) polyclonal antibody and performed quantitative PCT (qPCR) as already described in Example 2.
HERV-V1 and V2, respectively, were analyzed separately. […]

[12] = system: SKOV3 cells; assay: Dose-response of HERV transcription by qPCR, SKOV3; settings: FIG. 9
Description: The term ΔCt reflects the difference (Δ) in cycle (C) thresholds (t). […] Measurement of specific RNA transcripts like HERV-V1/V2 by qPCR is usually performed in relation to the standard 18S, more or less transcription products are expressed in + or −ΔCt. Furthermore, differences in ΔCt between treated and untreated cells were shown as ΔΔCt.

[13] = SK-OV-3, SKOV3, single drug, read-out: IC50
[14] = OvCar3, single drug, read-out: IC50

Compound	IC50 [1, 13]	IC50 [2, 14]	IC50 [3]	IC50 [4]	dissolution [5]	rate of apoptosis [6]	ΔCt HERV Henv ([7]; 1x drug)	ΔCt HERV KISD ([7]; 1x drug)	ΔCt HERV Kpol ([7]; 1x drug)	ΔCt HERV Kenv ([7]; 1x drug)	ΔCt HERV IDDMK1.2 ([7]; 1x drug)	ΔCt KERV Kseminoma ([7]; 1x drug)	ΔCt HERV V3.1 ([7]; 1x drug)	ΔCt HERV Kgag ([7]; 1x drug)	ΔCt HERV Fpol ([7]; 1x drug)	ΔCt HERV KLTR ([7]; 1x drug)	ΔCt HERV Eenv ([7]; 1x drug)	ΔCt HERV Wprt ([7]; 1x drug)	ΔCt HERV FRD1 ([7]; 1x drug)	ΔCt HERV Wenv ([7]; 1x drug)	further results
CC(C)Cn1cnc2c(N)nc3ccccc3c21 [Imiquimod, imiquimod]	15 µM	23 µM	500 µM	500 µM	difficult to dissolve	about 3%															
C/C=C1\NC(=O)[C@H]2CSSCC/C=C/[C@H](CC(=O)N[C@H](C(C)C)C(=O)N2)OC(=O)[C@H](C(C)C)NC1=O [Romidepsin, romidepsin]			0.006 µM	0.003 µM		about 3%	14.87 ± 0.30	17.10 ± 0.35	18.19 ± 0.51	18.48 ± 0.26	17.66 ± 0.27	19.70 ± 0.76	18.63 ± 0.36	18.57 ± 0.43	19.67 ± 0.22	21.02 ± 1.95	19.99 ± 0.51	20.97 ± 1.15	22.07 ± 0.64	22.33 ± 0.33	ΔCt HERV WE1 ([7]; 1x drug): 21.92 ± 1.02; ΔCt HERV V1 ([7]; 1x drug): 15.30 ± 0.36; ΔCt HERV V2 ([7]; 1x drug): 15.24 ± 0.25; ΔCt HERV Penv ([7]; 1x drug): 25.46 ± 0.60; ΔCt HERV Pgag ([7]; 1x drug): 26.02 ± 0.50; ΔCt HERV HC2pol ([7]; 1x drug): 24.85 ± 0.35; ΔCt HERV Ppol ([7]; 1x drug): 26.55 ± 0.39; ΔCt HERV C ([7]; 1x drug): 26.79 ± 0.97; ΔCt HERV MER34.1 ([7]; 1x drug): 25.78 ± 0.13; ΔCt HERV T ([7]; 1x drug): 29.31 ± 0.84; ΔCt HERV L ([7]; 1x drug): 27.62 ± 0.95; ΔCt HERV Fc1 ([7]; 1x drug): 28.17 ± 3.80; ΔCt HERV Spol ([7]; 1x drug): 31.04 ± 1.11; ΔCt HERV P4.6 ([7]; 1x drug, untreated […]): 31.65 ± 1.16; IC50 ([1]; SK-OV-3): 0.004 µM; IC50 ([1]; SK-OV-3, read-out: IC50 (cell growth)): 0.004 µg/mL; resistance of primary ovarian cancer cells compared to SKOV3 [8]: ~188 fold; IC50 [8]: 0.75 µg/mL (≈ 1.39 µM); IC50 [2]: 0.007 µM
CCCCOc1nc(N)c2c(n1)N(Cc1cccc(CN3CCCC3)c1)CC(=O)N2 [Vesatolimod, vesatolimod]	39 µM	32 µM	40 µM	32 µM	better dissolution profile in common vehicles	about 8%															IC50 ([1]; SK-OV-3, SKOV3, single drug, MTT, read-out: IC50 (cell growth)): 12.5 µg/mL; IC50 ([8]; OvCa28, single drug, MTT): 30 µg/mL (≈ 73.1 µM); resistance of primary ovarian cancer cells compared to SKOV3 [8]: ~2 fold; NFkB activity (reporter) ([9]; in both cell lines, OvCar 3 and SKOV3, without stimulation about 6000 RLU): slightly reduced activity; total tumor volume [10]: did reduce the total tumor volume
O=C(CCCCCCC(=O)Nc1ccccc1)NO [Vorinostat, vorinostat]						about 6%	15.51 ± 0.31	17.71 ± 0.19	18.81 ± 0.30	19.26 ± 1.00	18.29 ± 0.29	20.25 ± 0.18	19.22 ± 0.33	19.17 ± 0.41	20.37 ± 0.49	19.31 ± 0.42	20.08 ± 0.25	20.80 ± 0.34	22.51 ± 0.45	22.03 ± 0.34	ΔCt HERV WE1 ([7]; 1x drug): 22.18 ± 0.32; ΔCt HERV V1 ([7]; 1x drug): 15.48 ± 0.78; ΔCt HERV V2 ([7]; 1x drug): 15.46 ± 0.79; ΔCt HERV Penv ([7]; 1x drug): 25.39 ± 0.49; ΔCt HERV Pgag ([7]; 1x drug): 25.45 ± 0.11; ΔCt HERV HC2pol ([7]; 1x drug): 25.52 ± 0.39; ΔCt HERV Ppol ([7]; 1x drug): 26.34 ± 0.33; ΔCt HERV C ([7]; 1x drug): 27.84 ± 0.59; ΔCt HERV MER34.1 ([7]; 1x drug): 26.62 ± 0.62; ΔCt HERV T ([7]; 1x drug): 28.24 ± 0.72; ΔCt HERV L ([7]; 1x drug): 28.08 ± 0.90; ΔCt HERV Fc1 ([7]; 1x drug): 30.36 ± 0.84; ΔCt HERV Spol ([7]; 1x drug): 30.80 ± 0.75; HERV-V2 expression levels ([7]; SKOV3, qPCR, FIG. 1B): increased; expression of HERV-V1 and V2 transcripts after H3K9ac immunoprecipitation [11]: enhanced; expression of HERV-V1 and V2 [12]: increased
TNFα																					response of NF-κB reporter vector ([9]; positive control, inflammatory stimulation): 20.000 RLU
